In patent publication US10774039B2, “Cyclopropene amino acids and methods” (United Kingdom Research and Innovation, priority 2014, dated 2020):

Legend:
PylRS/tRNACUA pair = experiment: Site-specific incorporation into sfGFP150TAG expressed in E. coli; type: cell-based, Methanosarcina barkeri
Description: FIG. 2A: The PylRS/RNACUA pair directs efficient, site-specific incorporation of 3 into sfGFP bearing an amber stop codon at position 150.
Expression and purification of sfGFP-3 from E. coli Electrocompetent E. coli DH10B cells were co-transformed with pBK-MbPylRS and psfGFP150TAG PyIT^14, 26. Transformed cells were recovered in S.O.B. (1 mL, supplemented with 0.2% glucose) for 1 h at 37° C. and used to inoculate LB containing 50 μg/mL kanamycin and 25 μg/mL tetracycline (LB-KT). The cells were incubated with shaking overnight at 37° C., 250 r.p.m. 1 mL of overnight culture was used to inoculate 100 mL of LB-KT½, the day culture was then incubated (37° C., 250 r.p.m). At O.D.600˜0.3, the culture was divided equally and supplemented with either 3 (1 mM) or H2O (500 μL) and incubated further (37° C., 250 r.p.m). At O.D.600˜0.6 protein expression was induced by the addition of arabinose (0.2%), after 4 h, the cells were harvested by centrifugation (4000 r.p.m, 20 min) and the pellet frozen until further use.
The frozen bacterial pellet was thawed on ice and resuspended in 2.5 mL lysis buffer (Bugbuster®, Novagen®, 50 μg/mL DNAse 1, Roche inhibitor cocktail and 20 mM imidazole). Cells were incubated (4° C., 30 minutes) then clarified by centrifugation (16000 g, 4° C., 30 minutes). The clarified lysates were transferred to fresh tubes and 100 μL Ni-NTA slurry added. The mixtures was incubated with agitation (4° C., 1 h) and then collected by centrifugation (1000 g, 4° C., 5 min). The beads were resuspended three times in 500 μL wash buffer (10 mM Tris-HCL, 40 mM imidazole, 200 mM NaCl, pH 8) and collected by centrifugation (1000 g, 4° C., 5 min). Finally, the beads were resuspended in 100 μL, elution buffer (10 mM Tris-HCL, 300 mM imidazole, 200 mM NaCl, pH 8), pelleted by centrifugation (1000 g, 4° C., 5 min) and the supernatant collected into fresh tubes. The elution was repeated three times with 100 μL of elution buffer. The purified proteins were analysed by 4-12% SDS-PAGE and LC-MS.

DH10B cells = experiment: E. coli growth (OD600) in presence of 3 during SORT-M; type: cell-based
Description: Chemically competent DH10B cells were transformed with two plasmids: pBKwtPylRS necessary for expression of PylRS, and pBAD_wtT4L_MbPylTXXX plasmids that is required for expression of PyltRNAXXX and expresses lysozyme under arabinose control. […] 200 μL aliquots of these cultures were transferred into a 96-well plate and OD600 measured using a Microplate reader, Infinite 200 Pro (TECAN). OD600 was measured for each sample every 10 min with linear 1 mm shaking between the measurements.

CC1=CC1COC(=O)NCCCC[C@H](N)C(=O)O (stereo partly drawn) [amino acid 3, N^ε-[((2-methylcycloprop-2-en-1-yl)methoxy)carbonyl]-L-lysine]
yield of protein (PylRS/tRNACUA pair; SfGFP gene with amber codon at position 150, E. coli, PylRS/tRNACUA pair): 8 mg per litre of culture
efficiency of site-specific incorporation into sfGFP (PylRS/tRNACUA pair; amber stop codon at position 150, E. coli, compared with 1): more efficient than 1
toxicity to cells of incorporation via SORT-M (DH10B cells; 0.1 mM): Not Toxic
effect on cell growth (DH10B cells; 0.1 or 0.5 mM): little or no effect on cell growth
